# US7910600B2, “Therapeutic kinase modulators” (Cylene Pharmaceuticals, Inc., priority 2007, dated 2011)
# How the values were obtained:
# [1] = target: T1, recombinant human CK2 (Homo sapiens, UniProt P68400); assay: Cell-free CK2 assay; type: biochemical; details: for inhibition at 0.5 µM: read-out: CK2: % inh 500 nM
# T1 construct: purchased Upstate
# Procedure: Modulatory activity of compounds described herein is assessed in vitro in cell-free CK2 assays. These assays are described hereafter.
# Test compounds in aqueous solution are added at a volume of 10 microliters, to a reaction mixture comprising 10 microliters Assay Dilution Buffer (ADB; 20mM MOPS, pH 7.2, 25 mM beta-glycerolphosphate, 5 mM EGTA, 1 mM sodium orthovanadate and 1 mM dithiothreitol), 10 microliters of substrate peptide (RRRDDDSDDD (SEQ ID NO:4), dissolved in ADB at a concentration of 1 mM), 10 microliters of recombinant human CK2 (25 ng dissolved in ADB; Upstate). Reactions are initiated by the addition of 10 microliters of ATP Solution (90% 75 mM MgC12, 75 micromolar ATP dissolved in ADB; 10% [γ-^33P]ATP (stock 1 mCi/100 μl; 3000 Ci/mmol (Perkin Elmer) and maintained for 10 minutes at 30 degrees C. The reactions are quenched with 100 microliters of 0.75% phosphoric acid, then transferred to and filtered through a phosphocellulose filter plate (Millipore). After washing each well 5 times with 0.75% phosphoric acid, the plate is dried under vacuum for 5 min and, following the addition of 15 ul of scintillation fluid to each well, the residual radioactivity is measured using a Wallac […].
# [2] = test system: HCT-116 human colorectal carcinoma cells; assay: Cell proliferation assay (Alamar Blue), HCT-116; type: cell-based; details: HCT-116 cell line
# Procedure: (§1) A representative cell-proliferation assay protocol using Alamar Blue dye (stored at 4° C., use 20 ul per well) is described hereafter.
# (§2) 96-Well Plate Setup and Compound Treatment
# (§3) • a. Split and trypsinize cells. • b. Count cells using hemocytometer. • c. Plate 4,000-5,000 cells per well in 100 μl of medium and seed into a 96-well plate according to the following plate layout. Add cell culture medium only to wells B10 to B12. Wells B1 to B9 have cells but no compound added.
# (§4) • d. Add 100 μl of 2× drug dilution to each well in a concentration shown in the plate layout above. At the same time, add 100 μl of media into the control wells (wells B10 to B12). Total volume is 200 μl/well. • e. Incubate four (4) days at 37° C., 5% CO2 in a humidified incubator. • f. Add 20 μl Alamar Blue reagent to each well. • g. Incubate for four (4) hours at 37° C., 5% CO2 in a humidified incubator. • h. Record fluorescence at an excitation wavelength of 544 nm and emission wavelength of 590 nm using a microplate reader.
# (§5) In the assays, cells are cultured with a test compound for approximately four days, the dye is then added to the cells and fluorescence of […] dye is detected after approximately four hours. Different types of cells can be utilized in the assays (e.g., HCT-116 human colorectal carcinoma cells, PC-3 human prostatic cancer cells and MiaPaca human pancreatic carcinoma cells).
# [3] = test system: MV-4-11; assay: Cell proliferation assay (Alamar Blue), MV-4-11; type: cell-based; details: Homo sapiens, MV4-11; MV-4-11 cell line
# Procedure: as §1, §2, §3, §4, §5
# [4] = test system: K562; assay: Cell proliferation assay (Alamar Blue), K562; type: cell-based; details: Homo sapiens; K562 cell line
# Procedure: as §1, §2, §3, §4, §5
# [5] = test system: MiaPaca human pancreatic carcinoma cells; assay: Cell proliferation assay (Alamar Blue), MiaPaCa; type: cell-based; details: MIA PaCa-2, MiaPaCa cell line
# Procedure: as §1, §2, §3, §4, §5
# [6] = test system: PC-3 human prostatic cancer cells; assay: Cell proliferation assay (Alamar Blue), PC3; type: cell-based; details: PC3 cell line
# Procedure: as §1, §2, §3, §4, §5
# [7] = test system: BxPC3; assay: Cell proliferation assay (Alamar Blue), BxPC3; type: cell-based; details: Homo sapiens, BXPC-3; BxPC3 cell line; read-out: Bx-PC3
# Procedure: as §1, §2, §3, §4, §5
# [8] = test system: MDA-MB231; assay: Cell proliferation assay (Alamar Blue), MDA-MB231; type: cell-based; details: Homo sapiens, MDA-MB-231; MDA-MB231 cell line
# Procedure: as §1, §2, §3, §4, §5
# T1 sequence (P68400 whole entry): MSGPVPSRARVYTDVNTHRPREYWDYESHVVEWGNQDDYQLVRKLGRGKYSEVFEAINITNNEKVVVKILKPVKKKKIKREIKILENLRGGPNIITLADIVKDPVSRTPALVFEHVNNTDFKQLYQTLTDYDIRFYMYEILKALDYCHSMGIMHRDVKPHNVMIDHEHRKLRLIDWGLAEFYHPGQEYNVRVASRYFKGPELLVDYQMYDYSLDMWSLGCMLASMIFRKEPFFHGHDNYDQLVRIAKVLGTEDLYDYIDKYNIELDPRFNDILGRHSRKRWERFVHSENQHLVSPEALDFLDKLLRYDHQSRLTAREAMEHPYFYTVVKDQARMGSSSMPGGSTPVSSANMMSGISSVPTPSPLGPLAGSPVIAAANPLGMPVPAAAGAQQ
# T1 sequence (P67870 whole entry partner): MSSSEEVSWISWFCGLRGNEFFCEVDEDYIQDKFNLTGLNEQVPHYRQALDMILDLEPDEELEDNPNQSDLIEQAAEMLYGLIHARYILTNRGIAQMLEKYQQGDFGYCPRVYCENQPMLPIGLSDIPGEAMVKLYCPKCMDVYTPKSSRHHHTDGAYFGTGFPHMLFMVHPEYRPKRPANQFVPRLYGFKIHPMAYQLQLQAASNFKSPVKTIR
SMILES,inhibition at 0.5 µM [1],IC50 [2],IC50 [3],IC50 [4],IC50 [5],IC50 [6],IC50 [1],IC50 [7],IC50 [8]
Cc1cscc1-c1nc2cc(C(=O)O)ccc2c2cnccc12,87%,–,–,–,–,–,–,–,–
Cn1cc(-c2nc3cc(C(=O)NC4CC4)ccc3c3cnccc23)cn1,-15%,1 µM,2.7 µM,–,–,–,–,–,–
COC(=O)c1ccc2c(c1)nc(-c1cnn(C)c1)c1nc(S(C)(=O)=O)ncc12,11%,0.9 µM,–,–,–,–,–,–,–
Cc1ccccc1-c1nc2cc(C(=O)O)ccc2c2cnccc12,76%,> 10 µM,–,> 10 µM,> 10 µM,> 10 µM,–,–,–
Nc1cccc(-c2nc3cc(C(=O)O)ccc3c3cnccc23)c1,97%,> 10 µM,> 10 µM,–,> 10 µM,–,0.027 µM,> 10 µM,> 10 µM
COC(=O)c1ccc2c(c1)nc(-c1cscc1C)c1ccncc12,4%,–,–,–,–,–,–,–,–
CCCNC(=O)c1ccc2c(c1)nc(-c1cnn(C)c1)c1ccncc12,-21%,> 10 µM,> 10 µM,> 10 µM,–,–,–,–,–
NC(=O)c1ccc2c(c1)nc(-c1ccccc1)c1ccncc12,27%,> 10 µM,1.4 µM,> 10 µM,–,–,–,–,–
Clc1cccc(-c2nc3ccccc3c3cnccc23)c1,-17%,> 10 µM,–,> 10 µM,> 10 µM,> 10 µM,–,–,–
CN1CCCCC1CNC(=O)c1ccc2c(c1)nc(-c1cccc(N)c1)c1ccncc12 (stereo not shown),9%,> 10 µM,> 10 µM,> 10 µM,> 10 µM,> 10 µM,–,–,–
CC(=O)Nc1cccc(-c2nc3cc(C(=O)N4CCN(C)CC4)ccc3c3cnccc23)c1,6%,> 10 µM,–,–,–,–,–,–,–
Fc1ccc2c(c1)nc(-c1cccc(OC(F)(F)F)c1)c1ccncc12,-35%,–,–,–,–,–,–,–,–
CN1CCCN(C(=O)c2ccc3c(c2)nc(-c2cccc(N)c2)c2ccncc23)CC1,-21%,> 10 µM,–,–,–,–,–,–,–
CN(C)C(=O)c1ccc2c(c1)nc(-c1cnn(C)c1)c1ccncc12,-13%,> 10 µM,> 10 µM,> 10 µM,–,–,–,–,–
CCCNC(=O)c1ccc2c(c1)nc(-c1ccccc1)c1ccncc12,-26%,> 10 µM,> 10 µM,> 10 µM,–,–,–,–,–
CC(=O)Nc1cccc(-c2nc3cc(C(=O)NN4CCOCC4)ccc3c3cnccc23)c1,19%,> 10 µM,–,–,–,–,–,–,–
"COC(=O)c1ccc2c(c1)nc(-c1ccccc1)c1ccncc12 [Methyl 5-phenylbenzo[c][2,6]naphthyridine-8-carboxylate]",-34%,2.9 µM,> 10 µM,> 10 µM,–,–,–,–,–
CN1CCCN(C(=O)c2ccc3c(c2)nc(-c2ccccc2)c2ccncc23)CC1,-15%,> 10 µM,> 10 µM,> 10 µM,–,–,–,–,–
"COC(=O)c1ccc2c(c1)nc(-c1ccccc1)c1nc(SC)ncc12 [methyl 3-(methylthio)-5-phenylpyrimido[4,5-c]quinoline-8-carboxylate]",-26%,2 µM,–,–,–,–,–,–,–
O=C(NC1CC1)c1ccc2c(c1)nc(-c1ccccc1)c1ccncc12,-9%,> 10 µM,> 10 µM,> 10 µM,–,–,–,–,–
"COC(=O)c1ccc2c(c1)nc(-c1cnn(C)c1)c1ccncc12 [Methyl 5-(1-methyl-1H-pyrazol-4-yl)benzo[c][2,6]naphthyridine-8-carboxylate]",-49%,2.5 µM,> 10 µM,> 10 µM,–,–,–,–,–
CC(=O)Nc1cccc(-c2nc3cc(C(=O)NCCN4CCCC4)ccc3c3cnccc23)c1,89%,> 10 µM,–,–,–,–,0.144 µM,–,–

SMILES,inhibition at 0.5 µM [1],IC50 [2],IC50 [3],IC50 [4],IC50 [5],IC50 [6],IC50 [1],IC50 [7],IC50 [8]
"O=C(O)c1ccc2c(c1)nc(-c1ccccc1)c1ccncc12 [5-phenylbenzo[c][2,6]naphthyridine-8-carboxylic acid]",97%,> 10 µM,8.1 µM,> 10 µM,> 10 µM,–,0.013 µM,> 10 µM,> 10 µM
Cc1cnc(CNC(=O)c2ccc3c(c2)nc(-c2cccc(N)c2)c2ccncc23)cn1,-24%,> 10 µM,–,–,–,–,–,–,–
Cn1cc(-c2nc3cc(C(=O)O)ccc3c3cnccc23)cn1,98%,> 10 µM,> 10 µM,> 10 µM,> 10 µM,–,0.004 µM,> 10 µM,> 10 µM
Cc1noc(C)c1-c1nc2cc(C(=O)O)ccc2c2cnccc12,52%,–,–,–,–,–,–,–,–
Nc1cccc(-c2nc3cc(C(=O)NCCN4CCCC4)ccc3c3cnccc23)c1,56%,> 10 µM,–,–,–,–,–,–,–
COC(=O)c1ccc2c(c1)nc(-c1c(C)noc1C)c1ccncc12,-5%,–,–,–,–,–,–,–,–
CC(=O)Nc1cccc(-c2nc3cc(C(=O)N4CCCN(C)CC4)ccc3c3cnccc23)c1,30%,> 10 µM,–,–,–,–,–,–,–
COc1cccc(F)c1-c1nc2cc(C(=O)O)ccc2c2cnccc12,68%,> 10 µM,–,> 10 µM,> 10 µM,> 10 µM,–,–,–
Cn1cc(-c2nc3cc(C(N)=O)ccc3c3cnccc23)cn1,7%,> 10 µM,2.9 µM,> 10 µM,–,–,–,–,–
CC(=O)Nc1cccc(-c2nc3cc(C(=O)NCc4cnc(C)cn4)ccc3c3cnccc23)c1,-6%,> 10 µM,–,–,–,–,–,–,–
Fc1ccc2c(c1)nc(-c1ccncc1)c1ccncc12,-37%,–,–,–,–,–,–,–,–
Cc1ccccc1-c1nc2ccccc2c2cnccc12,-15%,> 10 µM,–,> 10 µM,> 10 µM,> 10 µM,–,–,–
Clc1ccc(-c2nc3ccccc3c3cnccc23)cc1,-5%,> 10 µM,–,> 10 µM,> 10 µM,> 10 µM,–,–,–
Fc1ccc2c(c1)nc(-c1ccccc1)c1ccncc12,-51%,–,–,–,–,–,–,–,–
O=C(O)c1ccc2c(c1)nc(-c1ccc(Cl)s1)c1ccncc12,99%,–,–,–,–,–,–,–,–
CN(C)C(=O)c1ccc2c(c1)nc(-c1ccccc1)c1ccncc12,0%,> 10 µM,> 10 µM,> 10 µM,–,–,–,–,–
CC(=O)Nc1cccc(-c2nc3cc(C(=O)O)ccc3c3cnccc23)c1,93%,> 10 µM,> 10 µM,> 10 µM,> 10 µM,–,0.042 µM,> 10 µM,> 10 µM
N#Cc1cccc(-c2nc3cc(C(=O)O)ccc3c3cnccc23)c1,98%,> 10 µM,–,–,> 10 µM,> 10 µM,0.045 µM,–,–
CC(=O)Nc1cccc(-c2nc3cc(C(=O)NCC4CCCCN4C)ccc3c3cnccc23)c1 (stereo not shown),40%,> 10 µM,–,–,–,–,–,–,–
Nc1cccc(-c2nc3cc(C(=O)NN4CCOCC4)ccc3c3cnccc23)c1,-28%,> 10 µM,–,–,–,–,–,–,–
O=C(O)c1ccc2c(c1)nc(-c1ccccc1OC(F)(F)F)c1ccncc12,23%,> 10 µM,–,–,> 10 µM,> 10 µM,–,–,–
CN1CCN(C(=O)c2ccc3c(c2)nc(-c2ccccc2)c2ccncc23)CC1,57%,> 10 µM,> 10 µM,> 10 µM,–,–,–,–,–
